What was measured:
Format in all cases: ADME, organism-based
[1] = Plasma concentration in Sprague-Dawley rat at 2.5 umol/kg, sc after 1 hr; details: read-out: Drug uptake
[2] = Drug level in brain to plasma in Sprague-Dawley rat at 2.5 umol/kg, sc after 1 hr
Brain = experiment: Drug level in Sprague-Dawley rat brain at 2.5 umol/kg, sc after 1 hr; details: in vivo

SMILES | concentration at 1 h [1] [nM] | Kp at 1 h [2] | Drug uptake (Brain) [nmol/kg]
COc1ccccc1C(CNS(=O)(=O)c1ccc(Cl)cc1)N1CCCCCC1 (centres undefined) | 103 | 1.9 | 202
COc1ccccc1C(CNS(=O)(=O)c1ccc(F)c(Cl)c1)N1CCCCCC1 (centres undefined) | 105 | 1.6 | 168
COc1ccccc1C(CNS(=O)(=O)c1ccc(C(F)(F)F)cc1)N1CCCCCC1 (centres undefined) | 72 | 2.1 | 154
